The source of these data is US20240408082A1, “METHODS FOR TREATING CANCERS AND TUMORS” (BEYONDSPRING PHARMACEUTICALS, INC., priority 2021, published 2024).

This assay relates to small cell lung cancer. Briefly: 3D clonogenic assay, Example 2, small cell lung cancer. The assay is classed as cell-based. The settings on record: n=7 models. Here is the method: The present study investigated plinabulin for anticancer activity ex vivo in 68 out of 71 originally planned patient-derived xenograft (PDX) models representing major cancer types. Experiments were performed using a 3D clonogenic assay in a 96-well format with colony count based on image analysis as a read-out. By using this assay, the investigational compound was assessed for the ability to inhibit anchorage independent growth and ex vivo colony formation of tumor cells in semi-solid medium.
A master stock solution of plinabulin was prepared by dissolving the compound in DMSO at a concentration of 9.9 mM. Working stock solutions were prepared by diluting the master stock solution with DMSO to a concentration of 0.99 mM (330-fold the highest test concentration). Small aliquots of the master and working stock were stored at −20° C. […]
Plinabulin was investigated in 68 PDX models representing a number of cancer types. […] The percentage of viable cells was determined in a Neubauer-hemocytometer using trypan blue exclusion. […]
The clonogenic assay was carried out in a 96 well plate format using ultra low attachment plates. […] Cultures were incubated at 37° C. and 7.5% CO2 in a humidified atmosphere 13 days in total and monitored closely for colony growth using an inverted microscope. […]

One may read the IC50 as the concentration needed to halve the response being measured.

Consider `CC(C)(C)c1[nH]cnc1/C=c1\[nH]c(=O)/c(=C/c2ccccc2)[nH]c1=O` [plinabulin, (3Z,6Z)-3-Benzylidene-6-{[5-(2-methyl-2-propanyl)-1H-imidazol-4-yl]methylene}-2,5-piperazinedione], for which the “geom. mean abs. IC70” value turned out to be 385 nM. For the same compound, the IC50 (read-out: geom. mean abs. IC50) was determined as 74 nM.
